Results as given in US10004697B2, “In vivo sperm selection for treating male infertility” (M Pharmaceutical USA Inc., priority 2016, dated 2018).

System: women
Test: Topical menthol applied to the vulva: increase of vaginal lubrication in women
Type: in vivo, human
Details: applied to the vulva (including the clitoris)
Source text: Abnormal sperm quality in combination with inadequate vaginal lubrication can cause infertility. The menthol-stimulated vaginal plasma transudate 30 that is generated by use of the inventive method compensates for lubrication insufficiency that may be present in the female sexual partner of the infertile male. […] Since most infertility is a combination of female and male factors, the production of this vaginal transudate 30 can aid conception rates of both infertile males and females. […] Therefore the sperm, even if they somehow are able to be capacitated, have little or no protective and nourishing substrate in which they can swim up through the external os 24 and into the cervical canal 21. The odds of fertilization are thus extremely low.

Compound: CC1CCC(C(C)C)C(O)C1 (centres unmarked) [menthol]
- women in whom lubrication is increased (all women): 80%
- women in whom lubrication is increased (women over 35): 90%
